Test results from patent US20160060352A1, “COMPOSITIONS AND METHODS FOR DETECTION AND TREATMENT OF HEPA[…]” (VIVENTIA BIO INC., priority 2013, published 2016).
Converted amounts (≈) assume the structure as drawn.

Columns and labels:
[1] = tested on: HLF; assay: MTS cell growth assay, HLF; format: cell-based; conditions: Homo sapiens, 48 h incubation
Description: (§1) Human HCC cell lines Hep3B, PLC/PRF/5, and SK-Hep1 were obtained from the American Type Culture Collection (Manassas, Va., USA). Other human HCC cell lines HuH-7, HuH-1, HepG2, HLE, and HLF were obtained from the Human Science Research Resources Bank (Osaka, Japan). HuH-7, HepG2, Hep3B, and SK-Hep1 cells were cultured in log growth phase in 1640 RPMI (Invitrogen, Carlsbad, Calif.) and HuH-1, HLE, HLF, and PLC/PRF/5, cells were cultured in Dulbecco's modified Eagle medium (Invitrogen) with 5% fetal bovine serum (Sigma, St. Louis, Mo.) for HLF cells or 10% FBS for the remaining cell lines. All media were supplemented with 1% PenStrep (Sigma). […]
(§2) HCC cell lines were seeded in 96-well plates at 3×10^3 cells per well in a total volume of 50 μl of culture media. […] Cell viability was monitored using CellTiter 96 AQueous One Solution Cell Proliferation Assay Kit (Promega) and half-maximal inhibitory concentration (IC50) values were calculated. The mean values and standard deviations of IC50 were calculated in triplicate for each cell line. […] The remaining viable cells were counted using a Cytorecon (GE Healthcare) after staining with trypan blue to exclude the dead cells. Each analysis was performed in triplicate, and the data expressed as means±standard deviations.

[2] = tested on: HLE; assay: MTS cell growth assay, HLE; format: cell-based; conditions: Homo sapiens, 48 h incubation
Description: as §1, §2

[3] = tested on: CD13; assay: FACS analysis of stem/progenitor marker CD13 after treatment; format: cell-based, human; conditions: HuH-7 and Hep3B cells
Description: (§3) For flow cytometry, FACSCanto™ II (BD Biosciences, San Jose, Calif.) was used. Cancer cells were washed with phosphate-buffered saline, and then enzymatically dissociated with 0.05% trypsin-EDTA (Invitrogen). The trypsinized cells were suspended in FACS buffer, and analyzed on FACSCanto™ II using FACSDiva software (BD Biosciences). For the analysis of hepatic stem/progenitor markers, primary antibodies against Ep-CAM (#324206; Biolegend, San Diego, Calif.), CD13 (#555394; BD Pharmingen), CD44 (#555479; BD Pharmingen), CD90 (#328110; BioLegend), CD133 (#130-080-801; Miltenyi Biotec, Gladbach, Germany), Mouse IgG1 κtype (#555749; BioLegend), and Mouse IgG2b κtype (#400314; BioLegend) were used. All antibodies were conjugated directly with phycoerythrin (PE). The immunostaining and analysis were performed according to the instructions from the manufacturer.

[4] = tested on: HepG2; assay: MTS cell growth assay, HepG2; format: cell-based; conditions: Homo sapiens, 48 h incubation
Description: (§4) Human HCC cell lines Hep3B, PLC/PRF/5, and SK-Hep1 were obtained from the American Type Culture Collection (Manassas, Va., USA). Other human HCC cell lines HuH-7, HuH-1, HepG2, HLE, and HLF were obtained from the Human Science Research Resources Bank (Osaka, Japan). HuH-7, HepG2, Hep3B, and SK-Hep1 cells were cultured in log growth phase in 1640 RPMI (Invitrogen, Carlsbad, Calif.) and HuH-1, HLE, HLF, and PLC/PRF/5, cells were cultured in Dulbecco's modified Eagle medium (Invitrogen) with 5% fetal bovine serum (Sigma, St. Louis, Mo.) for HLF cells or 10% FBS for the remaining cell lines. All media were supplemented with 1% PenStrep (Sigma). […] All cell lines were cultivated in a humidified incubator at 37° C. in 5% carbon dioxide and harvested with 0.05% trypsin-0.03% EDTA (Invitrogen).
(§5) HCC cell lines were seeded in 96-well plates at 3×10^3 cells per well in a total volume of 50 μl of culture media. […] Cell viability was monitored using CellTiter 96 AQueous One Solution Cell Proliferation Assay Kit (Promega) and half-maximal inhibitory concentration (IC50) values were calculated. The mean values and standard deviations of IC50 were calculated in triplicate for each cell line. […] Each analysis was performed in triplicate, and the data expressed as means±standard deviations.

[5] = tested on: HuH-1; assay: MTS cell growth assay, HuH-1; format: cell-based; conditions: Homo sapiens, 48 h incubation
Description: as §4, §5

[6] = tested on: Hep3B; assay: MTS cell growth assay, Hep3B; format: cell-based; conditions: Homo sapiens, 48 h incubation
Description: as §4, §5

[7] = tested on: SK-Hep1 cells; assay: MTS cell growth assay, SK-Hep1; format: cell-based; conditions: Homo sapiens, 48 h incubation
Description: as §1, §2

[8] = tested on: Ep-CAM^high cell lines (HuH-7, HepG2, Hep3B and HuH-1); assay: Sphere formation assay; format: cell-based, human; conditions: 48 h treatment (VB4-845 1-10 pM, 5-FU 1-5 μg/ml), 7 days of culture
Description: Briefly, 1×10^6 cells of HuH-7, HepG2, Hep3B and HuH-1 were seeded in four 10 cm dishes. […] After 48h, the medium was changed to drug-free medium and incubated for 24 h. After cell viability was confirmed by trypan blue exclusion, the remaining viable cells were collected and plated separately at 1×10^2 cells in low attachment plates (96-well Ultra Low Cluster Plate; Costar, Corning, N.Y.), and incubated in serum-free Dulbecco's modified Eagle medium/F12 medium (Invitrogen). Sphere formation was observed using AxioObserver (Carl Zeiss, Oberkochen, Germany), and the images were acquired digitally using AxioVision software (Carl Zeiss).

[9] = tested on: PLC/PRF/5; assay: MTS cell growth assay, PLC/PRF/5; format: cell-based; conditions: Homo sapiens, 48 h incubation
Description: as §1, §2

[10] = tested on: HuH-7 subcutaneous xenografts; assay: Subcutaneous xenograft model; format: in vivo, NOD.CB17-PRkdcScid/J mice; conditions: three weeks after initiation; VB4-845 30 μg/kg i.v., 5-FU 30 mg/kg i.p., three times a week for 2 weeks
Description: Twenty five-week-old female NOD.CB17-PRkdcScid/J mice purchased from Charles River Laboratory Inc. (Kanagawa, Japan) were injected with 1×10^6 HuH-7 cells mixed with the same amount of Matrigel (BD Biosciences) subcutaneously into the both flanks of mice under anesthesia. […] Tumor size was measured using calipers three times a week and tumor volumes calculated using the following equation: volume=(length)×(width)2×0.5. The mice were sacrificed three weeks after the initiation of treatment.

[11] = tested on: CD133; assay: FACS analysis of stem/progenitor marker CD133 after treatment; format: cell-based, human; conditions: HuH-7, HepG2, and Hep3B cells, compared with the control
Description: as §3

[12] = tested on: Ep-CAM^low cell lines; assay: Cell proliferation assay (viable cell count, trypan blue), Ep-CAM^low cell lines; format: cell-based, human; conditions: VB4-845 10 pM and 5-FU 1-5 μg/ml, 48 h; p>0.05
Description: (A) Expression of Ep-CAM was analyzed by flow cytometry in 8 HCC cell lines. […] Cell growth was measured in MTS assays. […] Columns, alive cells (%); vertical bars, standard deviation.
as §2, with “line. To investigate cell viability, HCC cell lines were seeded in 6-well plates at 1×10^5 cells per well in a total volume of 2 ml of culture media.” for “line.”

[13] = tested on: HuH-7; assay: MTS cell growth assay, HuH-7; format: cell-based; conditions: Homo sapiens, 48 h incubation
Description: as §4, §5

O=c1[nH]cc(F)c(=O)[nH]1 [5-FU, 5-fluorouracil]
IC50 [1]: 33.5 ± 17.2 µg/mL (≈ 258 µM) | IC50 [2]: 16.5 ± 6.6 µg/mL (≈ 127 µM) | positive rate of CD13 [3]: significantly increased | IC50 [4]: 39.5 ± 9.6 µg/mL (≈ 304 µM) | IC50 [5]: 11.3 ± 6.3 µg/mL (≈ 86.9 µM) | IC50 [6]: 5.9 ± 1.8 µg/mL (≈ 45.4 µM) | IC50 [7]: 4.3 ± 0.5 µg/mL (≈ 33.1 µM) | sphere formation by surviving cells [8]: formed spheres | IC50 [9]: 55.6 ± 11.2 µg/mL (≈ 427 µM) | volume of tumors [10]: 555±147 mm^3 | positive rate of CD133 [11]: significantly increased | cell proliferation (alive cells) [12]: suppressed cell proliferation to the same extent as the combination of VB4-845 and 5-FU | IC50 [13]: 0.8 ± 0.1 µg/mL (≈ 6.15 µM)
